Results as given in US20120270293A1, “STAND[…] TISSUE SPECIMEN PR[…] […] T[…]” (priority 2009, published 2012).

Molecular target: RNase A (Bos taurus, UniProt P61823)
Conditions: free solution reaction
Procedure: FIG. 13. RNase A at designated amount was incubated with NBF at RT or 4° C. for 5 min and then mixed with 2 μg yeast tRNA and incubated at room temperature for 30 min for RNase A digestion and separated by 2% agarose gel. The tRNA molecules were between 50-100 nucleotides in length.
We have designed a series of direct forward biochemistry experiments to compare various chemical reagents such as formalin, RNA Later, methanol/alcohol, as well as heating conditions (boiling or autoclaving) in inhibiting the RNase bioactivity. […] We also compare the inhibition ability of formalin at room temperature and 4 degree C.

Sequence of RNase A (P61823 27-150): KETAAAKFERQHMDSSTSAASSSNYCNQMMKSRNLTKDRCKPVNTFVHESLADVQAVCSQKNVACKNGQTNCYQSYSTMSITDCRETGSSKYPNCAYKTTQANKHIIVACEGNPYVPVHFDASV

C=O [formalin]
inhibiting the RNase bioactivity (compared with RNA Later, methanol/alcohol, boiling or autoclaving): best RNase inhibitor | inhibition ability of formalin at room temperature and 4 degree C (room temperature versus 4 degree C): No difference
